From patent publication US8809368B2, “Compounds affecting gap junction activity” (Kansas State University Research Foundation, priority 2006, dated 2014)
Converted amounts (≈) assume the structure as drawn.

Assays:
[1] = test system: MDA-MB-453 human breast cancer cells; test: Soft agar colony growth, MDA-MB-453 cells; format: cell-based; conditions: Table 2
Experimental: (§1) FIG. 3(A) MDA-MB-453 and (B) T47D human breast cancer cells were treated with 10 μM of various quinolines for 7 days. Base agar plates were prepared containing 0.8% agar and 0.4% agar in Ham's F12. Cells (5×10^4 cells/33 mm well) were suspended in 100 μl of Ham's F12 with 0.4% agar and plated. These plates were maintained at 37° C. for 7 days and examined for the presence of colonies. Individual colonies of 40 μm or greater were examined. […] However, PQ3 caused a 2.3-fold increase in colony growth in MDA-MB-453 cells and PQ2 caused a 2.6-fold increase in T47D colony growth compared to DMSO. FIGS. 7 and 8 show MDA-MB-453 and T47D colony growth for various concentrations of PQ1 and SA tested for 7 days. The procedures are generally as described above. The cell colony growth decreased using 10 and 100 nM PQ1 for both cell types. Colony Growth Assay: T47D human breast cancer cells were treated with PQ1. Base agar plates were prepared containing 0.8% agar and 0.4% agar in Ham's F12. Cells (5×10^4 cells/33 mm2 well) were suspended in 100 μl of Ham's F12 with 0.4% agar and plated. These plates were maintained at 37° C. for 7 days and examined for the presence of colonies. Individual colonies of 40 um or greater were examined.

Trypanosoma brucei = test: Anti-trypanosomal activity, inhibition of T. brucei growth (ATP-bioluminescence luciferase assay); format: cell-based; conditions: read-out: IC50 against Trypanosoma brucei
Experimental: The antiparasitic activities of exemplary compounds described here was studied using the anti-trypanosomal activity protocol described in: Rapp M, et al. J Med Chem 2006; 49:2096-102. […] FIG. 1 summarizes the compound inhibition of T. brucei growth. It is seen that compounds of the invention are useful in inhibiting T. brucei growth.
Culturing of Parasites. The bloodstream form of Trypanosoma brucei 427 strain was maintained under the standard cell culture conditions (37° C., 5% CO2). The parasites were grown in complete HMI-9 medium containing 10% FBS, 10% Serum Plus and 1× Penicillin/Streptomycin. (Angew. Chem. Int. Ed. Engl. 2003, 42, 5274-5293).
Luciferase Assay. Luciferase assay was used to measure ATP-bioluminescence in T. brucei cultured in 96-well plates at 37° C. for 48 hours. Parasites were diluted to 1.0×10^5 cells/mL in complete HMI-9 medium. One hundred microliters (100 μL) of the diluted parasites were aliquoted into sterile 96-well flat white opaque culture plates (Greiner). Each compound was serially diluted from 10 μM to 0.1 μM in DMSO and then mixed in the appropriate wells containing parasites. The treated parasites were then incubated for 48 hours at 37° C. with 5% CO2 before monitoring viability. To measure the viability of the parasites after treatment with each compound, the parasites were lysed in the wells by adding 100 μL of CellTiter-Glo™ (Promega). After lysis, the ATP bioluminescence of the 96-well plates was measured with a SpectraFluor Plus multidetection plate reader (Tecan).

ZR75 = test: Gap junction intercellular communication, ZR75 cells; format: cell-based, human; conditions: Table 1
MDA-MB-231 = test: Gap junction intercellular communication, MDA-MB-231 cells; format: cell-based, human; conditions: Table 1
MDA-MB-453 cells = test: Gap junction activity (GJIC), flow cytometry of dye coupling, MDA-MB-453 cells; format: cell-based, human; conditions: MDA-MB-453; for effect on gap junction intercellular communication: Table 1, concentration not given
Experimental: FIG. 4(A) MDA-MB-453 and (B) T47D cells were treated with low (500 nM) and high (10 μM) concentrations of PQs for 24 hours. Monolayers of acceptor cell population were grown on 25-cm flasks in the presence of Vibrant DiD. Vybrant DiD in acceptor cells is not able to pass through the gap junctions because of its hydrophobic property. Single cell suspensions of donor treated cells were prepared, labeled with 0.05 μg/ml calcein-AM, incubated at 37 C for 5 minutes. Quantification of dye coupling between the donor and acceptor cells was assessed by dual-excitation flow cytometry. […] Cells treated with 10 μM PQ3 have approximately 40-50% decrease in gap junction activity compared control or DMSO.

HT29 = test: Gap junction intercellular communication, HT29 colon cancer cells; format: cell-based; conditions: Table 3
MCF-7 = test: Gap junction intercellular communication, MCF-7 cells; format: cell-based, human; conditions: Table 1
SW620 colon cancer cells = test: Gap junction activity, SW620 colon cancer cells; format: cell-based
Experimental: However, PQ3 has an opposite effect on mammary cancer cell lines. […] A summary of PQ-mediated GJIC activity and colony growth in breast and colon cancer cells is presented in Tables 1, 2, and 3, as well as FIGS. 10-13. In FIG. 10, SW620 cells were dosed for 24 hours with PQ1 at 100, 200, 300, and 500 nM. The gap junction activity was measured as a percent of control, as previously described. It was seen that all concentrations on PQ1 increased the gap junction activity in SW620 colon cancer cells as compared to the control. In FIG. 11, the effect of PQ1 on the expression of PKCγ was studied at concentrations of 100, 200, 300 and 500 nM PQ1 for 24 hours. It is seen in FIG. 11 that PQ1 has no effect on the expression of PKCγ at the levels tested. In FIGS. 12 and 13, the effect of PQ1 on the colony growth of SW620 colon cancer cells was measured with 1-100 nM PQ1 (FIG. 12) and 10 uM PQ1 (FIG. 13).

[2] = test system: T47D human breast cancer cells; test: Soft agar colony growth, T47D cells; format: cell-based; conditions: for effect on breast cancer cell colony growth: Table 2
Experimental: Base agar plates were prepared containing 0.8% agar and 0.4% agar in Ham's F12. Cells (5×10^4 cells/33 mm^2 well) were suspended in 100 μl of Ham's F12 with 0.4% agar and plated. These plates were maintained at 37° C. for 7 days and examined for the presence of colonies. Individual colonies of 50 μm or greater were examined. T47D cells were treated with 1, 10 and 100 nM PQ1 and SA (succinic acid) as a solvent control. Individual colonies of 50 μm or greater were examined. Statistical significance, *p<0.05, of at least three experiments
as §1, with “types.” for “types. Colony Growth Assay: T47D human breast cancer cells were treated with PQ1. Base agar plates were prepared containing 0.8% agar and 0.4% agar in Ham's F12. Cells (5×10^4 cells/33 mm2 well) were suspended in 100 μl of Ham's F12 with 0.4% agar and plated. These plates were maintained at 37° C. for 7 days and examined for the presence of colonies. Individual colonies of 40 um or greater were examined.”
(§2) Colony Growth Assay: T47D human breast cancer cells were treated with PQ1. Base agar plates were prepared containing 0.8% agar and 0.4% agar in Ham's F12. Cells (5×10^4 cells/33 mm2 well) were suspended in 100 μl of Ham's F12 with 0.4% agar and plated. These plates were maintained at 37° C. for 7 days and examined for the presence of colonies. Individual colonies of 40 um or greater were examined.
Various oncogenes (e.g. ras, raf, neu, src, mos) down-regulate GJIC while several tumor suppressor genes can up-regulate GJIC. […] Cells were grown in soft agar to assess their capacity for anchorage-independent growth, which is a key feature of cell transformation due to the importance of cell-cell and cell-matrix based tumor suppression. MEC and T47D cells were treated with 10, 100, 1000, and 10000 nM PQ1 for 7 days. A graphical presentation of three experiment results is presented in log scale of PQ1 concentration. […] A 100 nM PQ1 inhibits 66% of colony growth compared to controls, without PQ1 treatment or 100 nM succinic acid.
as §2, with “Using Soft Agar. Cells” for “Assay: T47D human breast cancer cells”, “0, 10, 100, 200 and 500 nM PQ1 for 7 days.” for “PQ1.”, “mm^2” for “mm2”, “50 μm” for “40 um”

R28 cells = test: Dye transfer/scrape loading gap junction assay in R28 cells; format: cell-based, rat; conditions: 10 μM for 40 minutes, compared to untreated control cells
Experimental: To determine the effects of the compounds of the invention on gap junctions, […] R28 cells and lucifer yellow dye and rhodamine dextran were used to study gap junction. (Das, S.; Lauer, J.; Barnett, M.; Lin, D.; Akoev, V.; Battina, S.; Hua, D. H.; Takemoto, D. J. PKCγ phosphorylates connexin50 on serine-430. A presentation at 2006 ARVO Annual Meeting, Apr. 30-May 4, 2006, Fort Lauderdale, Fla.). […] The cells were treated with different compounds as shown @ 10 μM for 40 minutes. A mixture of lucifer yellow (LY) and rhodamine dextran (RD) was added to the cells at the center of the coverslip. Two cuts across the coverslip were made to form a transient tear in the plasma membranes of the cells to permit dye transfer through gap junctions. Cells were incubated with the dye for 20 minutes, then fixed and examined by fluorescent microscopy. For quantitative analysis the extent of dye transfer was estimated by counting the number of LY and RD labeled cells in the microscopic field and graphed. […] PQ3 is useful as a drug having reduced gap junction inhibitory activity. The gap junction activity of other compounds of the invention may be tested as described herein without the use of undue experimentation.
Gap junction activity assay. R28 cells were grown to 90% confluency on coverslips. They were treated with PQ1 at 10 μM for 40 min. A mixture of 1% each, in PBS, Lucifer yellow (LY) and Rhodamine Dextran (RD) (Molecular Probes, Eugene, Oreg.) were added to the cells at the center of the coverslip. Two cuts across the coverslip were made to form a transient tear in the plasma membranes of the cells to permit dye entry into cells. Cells were incubated with 2.5 μl of both of the dyes for 20 min, then fixed in 2.5% paraformaldehyde, washed in PBS and examined by fluorescent microscopy using a Nikon C1 confocal microscopy. For quantitation, the extent of dye transfer was calculated by counting the number of LY-labeled cells from the initial scrape with subtraction of RD-labeled cells, as a cell damage control, in the microscopic field. Four points per slide were photographed. The experiments were repeated six times, and data are means±SEM.

Row | IC50 (Trypanosoma brucei) [µg/mL] | SMILES | effect on breast cancer cell colony growth [1] | effect on gap junction intercellular communication (ZR75) | effect on gap junction intercellular communication (MDA-MB-231) | effect on gap junction activity (MDA-MB-453 cells; 24 hours) | effect on gap junction intercellular communication (MDA-MB-453 cells) | effect on gap junction intercellular communication (HT29) | effect on gap junction intercellular communication (MCF-7) | effect on gap junction intercellular communication (SW620 colon cancer cells; Table 3, 6 uM) | increase in colony growth ([2]; 10 μM, 7 days, compared to DMSO) [fold] | effect on breast cancer cell colony growth [2] | effect on gap junction intercellular communication (SW620 colon cancer cells; Table 3, concentration not given) | effect on colony growth ([2]; 10 μM, 7 days) | block of lucifer yellow dye transfer through gap junctions (R28 cells) | block of lucifer yellow dye transfer through gap junctions (R28 cells; listed as MQ)
1 | 2.5 (≈ 6.6 µM) | COc1cc([N+](=O)[O-])c2nccc(C)c2c1Oc1cccc(C(F)(F)F)c1 [PQ2, 6-Methoxy-4-methyl-8-nitro-5-(3-trifluoromethylphenyloxy)quinoline] | No effect | No effect | Decrease | no significant effect | No effect | Increase | Decrease | Increase | 2.6 | Increase |  |  |  | 
2 | 25 (≈ 76.2 µM) | COc1cc([N+](=O)[O-])c(N)cc1Oc1cccc(C(F)(F)F)c1 [PQ4, 4-Amino-5-nitro-2-(3-trifluoromethylphenyloxy)anisole] | No effect | No effect | Decrease |  | No effect | Increase | No effect |  |  | Decrease | No effect | inhibitory effect |  | 
3 |  | OC(c1cc(C(F)(F)F)nc2c(C(F)(F)F)cccc12)C1CCCCN1 (centres unmarked) [mefloquine, reference compound] |  |  |  |  |  |  |  |  |  |  |  |  | blocked dye transfer significantly | hardly any passage of the dye
